The subject of this assay is MYO5B expression in CRC cell lines. As to the kind of experiment: MYO5B expression in CRC cell lines after 5-aza-dC (DAC) treatment, RT-qPCR. It is filed as cell-based. The settings on record: colon cancer (CRC) cell lines, 5 μM for four days vs vehicle (DMSO), 2-4 independent experiments, FIG. 3A. The method, then: All CRC cell lines were obtained from the American Type Culture Collection (ATCC, Rockville, USA) and maintained in recommended culture conditions. For methylation analysis, cells were treated with 5 μM 5-Aza-2′-Deoxycytidine (5-aza-dC/DAC, Sigma) or vehicle (DMSO) for four days followed by RNA extraction.
PCR conditions were used as previously described (Letellier et al, 2014) and the expression levels of the gene of interest were normalized against the housekeeping gene HPRT (Erickson et al, 2009). For bulk tissue and CRC cell lines, the RNA was extracted with the Mirneasy kit from Qiagen and the cDNA was obtained with the mirscript II (Qiagen). PCR cycling conditions as well as quality control and normalization steps were done in qBase+ (Biogazelle), using 2 reference genes as previously described (Qureshi-Baig et al, 2016; Ullmann et a, 2016).
Over the last years, hypermethylation of tumor suppressor genes has been reported in different cancer types (Biswas & Rao, 2017). In a similar manner, MYO5B is methylated in both gastric tumors (Dong et al, 2013) and leukemias (Kuang et al, 2008). Thus, it was analyzed whether promoter methylation could explain the observed down-regulation of MYO5B in CRC. To this end, the expression of MYO5B in CRC cell lines was investigated first after treatment with 5-Aza-2′-Deoxycytidine (5-aza-dC/DAC), a known demethylating agent.
In general terms: In qPCR the cycle at which signal appears reflects the starting amount.

Structures are written as SMILES.

`Nc1ncn([C@H]2C[C@H](O)[C@@H](CO)O2)c(=O)n1` [DAC, 5-Aza-2′-Deoxycytidine]: the “change of MYO5B basal expression levels after DAC treatment” value is “minor changes”. In addition, the “change of MYO5B basal expression levels after DAC treatment” value (listed as 5-aza-dC) is reported as “does not increase”.

The values above are taken from patent publication US11834717B2, “Biomarkers for cancer diagnosis, prediction or staging” (Universite du Luxembourg, priority 2017, dated 2023).
